According to patent publication US20080311076A1, “Morpholinylanilinoquinazoline Derivatives For Use As Antiviral Agents” (ARROW THERAPEUTICS LIMITED, priority 2004, published 2008):
pIC50: −log10 of the molar value.

System: HCV replicon cells Huh 9B
Assay: HCV replicon assay (luciferase) in Huh 9B replicon cells
Format: cell-based
Conditions: Hepatitis C virus; concentration reducing replicon level (luciferase activity) by 50% vs untreated cell control; 72 h incubation
Procedure: HCV replicon cells Huh 9B (ReBlikon), containing the firefly luciferase—ubiquitin—neomycin phosphotransferase fusion protein and EMCV-IRES driven HCV polyprotein with cell culture adaptive mutations.
Cells were cultured at 37° C. in a 5% CO2 environment and split twice a week on seeding at 2×10E6 cells/flask on day 1 and 1×10E6 3 days later. Some 0.25 mg/ml G418 was added to the culture medium (125 ul per 25 ml) but not the assay medium.
The culture medium consisted of DMEM with […] glucose and glutamax (Gibco 61965-026) supplemented with 1× non-essential amino acids, penicillin (100 IU/ml)/streptomycin (100 μg/ml), FCS (10%, 50 ml) and 1 mg/ml G418 (Invitrogen cat no 10131-027) & 10% foetal calf serum.
A flask of cells was trypsinised and a cell count carried out. Cells were diluted to 100,000 cells/ml and 100 μl of this used to seed one opaque white 96-well plate (for the replicon assay) and one flat-bottomed clear plate (for the tox assay) for every seven compounds to be tested for IC50. Wells G12 and H12 were left empty in the clear plate as the blank. Plates were then incubated at 37° C. in a 5% CO2 environment for 24 h.
On the following day compound dilutions are made up in medium at twice their desired final concentration in a clear round bottomed plate. All dilutions have a final DMSO concentration of 1%.
Once the dilution plate had been made up, controls and compounds were transferred to the assay plate (containing the cells) at 100 μl/well in duplicate plates.
Exception: in the white (replicon) plate, no compound was added to wells A1 and A2 and 100 μl of 1% DMSO was added to these instead. In the clear (Tox) plate, wells E12 & F12 only contained the DMSO control. Plates were then incubated at 37° C. with 5% CO2 for 72 h.
At the end of the incubation time, the cells in the white plate were harvested by washing with 200 μl/well of warm (37° C.) PBS and lysed with 20 μl cell culture lysis buffer (Promega). After 5 min incubation @ RT, luciferin solution was added to the luciferase assay buffer (LARB at 200 μl per 10 ml LARB. The M injector of the microplate luminometer (Lmax, Molecular Devices) was primed with […] injections. Plate were inserted into the luminometer and 100 μl luciferase assay reagent was added by the injector on the luminometer. The signal was measured using a 1 second delay followed by a 4 second measurement programme. The IC50, the concentration of the drug required for reducing the replicon level by 50% in relation to the untreated cell control value, can be calculated from the plot of the percentage reduction of the luciferase activity vs. drug concentration.

SMILES | pIC50
Brc1ccc2ncnc(Nc3ccc(N4CCOCC4)cc3)c2c1 [Example 1, (6-Bromo-quinazolin-4-yl)-(4-morpholin-4-yl-phenyl)-amine] | > 5.30
Ic1ccc2ncnc(Nc3ccc(N4CCOCC4)cc3)c2c1 [Example 2, (6-Iodo-quinazolin-4-yl)-(4-morpholin-4-yl-phenyl)-amine] | > 6.00
c1coc(-c2ccc3ncnc(Nc4ccc(N5CCOCC5)cc4)c3c2)c1 [Example 5, (6-Furan-2-yl-quinazolin-4-yl)-(4-morpholin-4-yl-phenyl)-amine] | > 6.00
c1nc(Nc2ccc(N3CCOCC3)cc2)c2cc(-c3ccc(C4OCCO4)o3)ccc2n1 [Example 6, [6-(5-[1,3]Dioxolan-2-yl-furan-2-yl)quinazolin-4-yl]-(4-morpholin-4-yl-phenyl)-amine] | > 5.30
O=Cc1ccc(-c2ccc3ncnc(Nc4ccc(N5CCOCC5)cc4)c3c2)o1 [Example 7, 5-[4-(4-Morpholin 4-yl-phenylamino)-quinazolin-6-yl]-furan-2-carbaldehyde] | > 6.00
OCc1ccc(-c2ccc3ncnc(Nc4ccc(N5CCOCC5)cc4)c3c2)o1 [Example 8, {5-[4-(4-morpholin-4-yl-phenylamino)-quinazolin-6-yl]-furan-2-yl}-methanol] | > 6.00
CS(=O)(=O)CCNCc1ccc(-c2ccc3ncnc(Nc4ccc(N5CCOCC5)cc4)c3c2)o1 [Example 9, (6-{5-[(2-Methanesulfonyl-ethylamino)-methyl]-furan-2-yl}-quinazolin-4-yl)-(4-morpholin-4-yl-phenyl)-amine] | > 6.00
CN1CCN(Cc2ccc(-c3ccc4ncnc(Nc5ccc(N6CCOCC6)cc5)c4c3)o2)CC1 [Example 11, {6-[5-(4-Methyl-piperazin-1-ylmethyl)-furan-2-yl]-quinazolin-4-yl}-(4-morpholin-4-yl-phenyl)-amine] | > 5.30
c1nc(Nc2ccc(N3CCOCC3)cc2)c2cc(-c3ccc(CN4CCOCC4)o3)ccc2n1 [Example 12, [6-(5-Morpholin-4-ylmethyl-furan-2-yl)-quinazolin-4-yl]-(4-morpholin-4-yl-phenyl)-amine] | > 6.00
CN(C)Cc1ccc(-c2ccc3ncnc(Nc4ccc(N5CCOCC5)cc4)c3c2)o1 [Example 13, [6-(5-Dimethylaminomethyl-furan-2-yl)-quinazolin-4-yl]-(4-morpholin-4-yl-phenyl)-amine] | > 5.30
CNCc1ccc(-c2ccc3ncnc(Nc4ccc(N5CCOCC5)cc4)c3c2)o1 [Example 14, [6-(5-Methylaminomethyl-furan-2-yl)-quinazolin-4-yl]-(4-morpholin4-yl-phenyl)-amine] | > 4.60
c1csc(-c2ccc3ncnc(Nc4ccc(N5CCOCC5)cc4)c3c2)c1 [Example 15, (4-Morpholin-4-yl-phenyl)-(6-thiophen-2-yl-quinazolin-4-yl)-amine] | > 6.00
Cc1ccccc1-c1ccc2ncnc(Nc3ccc(N4CCOCC4)cc3)c2c1 [Example 17, (4-Morpholin-4-yl-phenyl)-(6-o-tolyl-quinazolin-4-yl)-amine] | > 5.30
c1csc(-c2ccc3ncnc(Nc4ccc(N5CCOCC5)cc4)c3c2)n1 [Example 18, (4-Morpholin-4-yl-phenyl)-(6-thiazol-2-yl-quinazolin-4-yl)-amine] | > 6.00
COc1ncc(-c2ccc3ncnc(Nc4ccc(N5CCOCC5)cc4)c3c2)cn1 [Example 19, [6-(2-Methoxy-pyrimidin-5-yl)-quinazolin-4-yl]-(4-morpholin-4-yl-phenyl)-amine] | > 6.00
Cc1csc(-c2ccc3ncnc(Nc4ccc(N5CCOCC5)cc4)c3c2)c1 [Example 20, [6-(4-Methyl-thiophen-2-yl)-quinazolin-4-yl]-(4-morpholin-4-yl-phenyl)-amine] | > 5.30
O=C(O)c1ccc(-c2ccc3ncnc(Nc4ccc(N5CCOCC5)cc4)c3c2)s1 [Example 21, 5-[4-(4-Morpholin-4-yl-phenylamino)-quinazolin-6-yl]-thiophene-2-carboxylic acid] | > 4.60
CS(=O)(=O)c1ccc(-c2ccc3ncnc(Nc4ccc(N5CCOCC5)cc4)c3c2)cc1 [Example 22, [6-(4-Methanesulfonyl-phenyl)-quinazolin-4-yl]-(4-morpholin-4-yl-phenyl)-amine] | > 6.00

SMILES | pIC50
c1cc(-c2ccc3ncnc(Nc4ccc(N5CCOCC5)cc4)c3c2)cc(-n2cccn2)c1 [Example 23, (4-Morpholin-4-yl-phenyl)-[6-(3-pyrazol-1-yl-phenyl)-quinazolin-4-yl]-amine] | > 6.00
N#Cc1ccc(-c2ccc3ncnc(Nc4ccc(N5CCOCC5)cc4)c3c2)cc1 [Example 24, 4-[4-(4-Morpholin-4-yl-phenylamino)-quinazolin-6-yl]-benzonitrile] | > 5.30
O=C(Nc1ccc2ncnc(Nc3ccc(N4CCOCC4)cc3)c2c1)c1ccco1 [Example 25, Furan-2-carboxylic acid [4-(4-morpholin-4-yl-phenylamino)-quinazolin-6-yl]-amide] | > 4.60
COc1ccc(CNC(=O)c2ccc3ncnc(Nc4ccc(N5CCOCC5)cc4)c3c2)cc1 [Example 26, 4-(4-Morpholin-4-yl-phenylamino)-quinazoline-6-carboxylic acid 4-methoxy-benzylamide] | > 5.30
CCOC(=O)c1cccc(NC(=O)c2ccc3ncnc(Nc4ccc(N5CCOCC5)cc4)c3c2)c1 [Example 27, 3-{[4-(4-Morpholin-4-yl-phenylamino)-quinazoline-6-carbonyl]-amino}-benzoic acid ethyl ester] | > 5.30
COc1cccc(CNC(=O)c2ccc3ncnc(Nc4ccc(N5CCOCC5)cc4)c3c2)c1 [Example 28, 4-(4-Morpholin-4-yl-phenylamino)-quinazoline-6-carboxylic acid 3-methoxy-benzylamide] | > 5.30
Cc1ccc(CNC(=O)c2ccc3ncnc(Nc4ccc(N5CCOCC5)cc4)c3c2)cc1 [Example 29, 4-(4-Morpholin-4-yl-phenylamino)-quinazoline-6-carboxylic acid 4-methyl-benzylamide] | > 5.30
CNC(=O)c1ccc2ncnc(Nc3ccc(N4CCOCC4)cc3)c2c1 [Example 30, 4-(4-Morpholin-4-yl-phenylamino)-quinazoline-6-carboxylic acid methylamide] | > 5.30
CN(C)C(=O)c1ccc2ncnc(Nc3ccc(N4CCOCC4)cc3)c2c1 [Example 31, 4-(4-Morpholin-4-yl-phenylamino)-quinazoline-6-carboxylic acid dimethylamide] | > 5.30
CCNC(=O)c1ccc2ncnc(Nc3ccc(N4CCOCC4)cc3)c2c1 [Example 32, 4-(4-Morpholin-4-yl-phenylamino)-quinazoline-6-carboxylic acid ethylamide] | > 5.30
O=C(Nc1ccc(-c2ccc3ncnc(Nc4ccc(N5CCOCC5)cc4)c3c2)cc1)OCc1ccccc1 [Example 34, {4-[4-(4-Morpholin-4-yl-phenylamino)-quinazolin-6-yl]-phenyl}-carbamic acid benzyl ester] | > 6.00
CC(=O)Nc1ccc(-c2ccc3ncnc(Nc4ccc(N5CCOCC5)cc4)c3c2)cc1 [Example 35, N-{4-[4-(4-Morpholin 4-yl-phenylamino)-quinazolin-6-yl]-phenyl}-acetamide] | > 6.00
CC(C)(C)OC(=O)Nc1ccc(-c2ccc3ncnc(Nc4ccc(N5CCOCC5)cc4)c3c2)cc1 [Example 36, {4-[4-(4-Morpholin-4-yl-phenylamino)-quinazolin-6-yl]-phenyl}-carbamic acid tert-butyl ester] | > 6.00
CS(=O)(=O)Nc1cccc(-c2ccc3ncnc(Nc4ccc(N5CCOCC5)cc4)c3c2)c1 [Example 38, N-{3-[4-(4-Morpholin-4-yl-phenylamino)-quinazolin-6-yl]-phenyl}-methanesulfonamide] | > 5.30
FC(F)(F)c1cc(N2CCOCC2)ccc1Nc1ncnc2ccc(I)cc12 [Example 39, (6-Iodo-quinazolin-4-yl)-(4-morpholin-4-yl-2-trifluoromethyl-phenyl)-amine] | > 6.00
FC(F)(F)c1cc(N2CCOCC2)ccc1Nc1ncnc2ccc(-c3cccs3)cc12 [Example 40, (4-Morpholin-4-yl-2-trifluoromethyl-phenyl)-(6-thiophen-2-yl-quinazolin-4-yl)-amine] | > 6.00
COc1cc(Nc2ncnc3ccc(I)cc23)ccc1N1CCOCC1 [Example 41, (6-Iodo-quinazolin-4-yl)-(3-methoxy-4-morpholin-4-yl-phenyl)-amine] | > 5.30
